These results are taken from patent publication EP1205473A1, “VESAMICOL PIPERAZINE DERIVATIVES AND DRUGS CONTAINING THE SAME” (DAIICHI RADIOISOTOPE LABORATORIES, LTD., priority 1999, dated 2001).

Read-outs that look alike come from different tables or passages of the source.

For assay [1], the target named is T1, vesamicol receptors (Rattus norvegicus, UniProt Q62666).
T1 sequence (Q62666 1-530): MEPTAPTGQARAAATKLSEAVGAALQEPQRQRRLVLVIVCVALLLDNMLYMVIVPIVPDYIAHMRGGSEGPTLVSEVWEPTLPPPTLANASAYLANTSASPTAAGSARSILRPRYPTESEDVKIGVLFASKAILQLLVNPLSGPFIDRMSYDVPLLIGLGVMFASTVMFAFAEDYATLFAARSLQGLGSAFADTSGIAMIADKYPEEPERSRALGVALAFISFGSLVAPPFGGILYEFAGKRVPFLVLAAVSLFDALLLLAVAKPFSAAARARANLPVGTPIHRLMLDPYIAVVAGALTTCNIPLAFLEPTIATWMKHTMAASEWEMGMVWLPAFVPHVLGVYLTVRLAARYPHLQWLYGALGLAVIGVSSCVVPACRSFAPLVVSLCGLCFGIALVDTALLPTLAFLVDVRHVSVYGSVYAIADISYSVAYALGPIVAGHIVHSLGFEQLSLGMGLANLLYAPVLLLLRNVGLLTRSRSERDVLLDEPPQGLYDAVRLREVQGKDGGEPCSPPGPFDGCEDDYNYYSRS
Nature of the assay: Saturation experiment of I-125 labeled DRC140 on brain cell fractions (Scatchard plots). It counts as binding. Set-up: Synaptic vesicles were extracted and separated from the brain of a rat; from tissue; host or cells: rat brain without cerebellum: P2, crude synaptic vesicles, purified synaptic vesicles. Particulars: for Bmax / Kd: average value ± standard deviation.

The target of assay [2] is T2, serotonin 5-HT1A receptors (Rattus norvegicus, UniProt P19327).
T2 construct: The hippocampi were immediately collected from the brains; from tissue; host or cells: rat hippocampus membranes
T2 sequence (P19327 1-422): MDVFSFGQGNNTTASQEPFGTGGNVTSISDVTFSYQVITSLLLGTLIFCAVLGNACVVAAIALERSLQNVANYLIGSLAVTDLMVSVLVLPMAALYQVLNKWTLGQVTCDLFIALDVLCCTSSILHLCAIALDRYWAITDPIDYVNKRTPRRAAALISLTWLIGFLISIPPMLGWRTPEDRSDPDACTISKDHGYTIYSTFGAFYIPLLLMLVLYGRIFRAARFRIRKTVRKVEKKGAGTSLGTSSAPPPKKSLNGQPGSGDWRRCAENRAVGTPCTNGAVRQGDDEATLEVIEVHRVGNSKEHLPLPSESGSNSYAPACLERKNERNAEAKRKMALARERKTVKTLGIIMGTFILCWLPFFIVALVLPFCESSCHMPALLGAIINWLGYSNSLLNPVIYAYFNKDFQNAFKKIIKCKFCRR
Briefly: Receptor binding test: inhibition of tritium-labeled 8-hydroxy-DPAT binding to brain (hippocampus) homogenate. Set-up: species or system Male Wistar rats. The method, then:
(§1) Properties relating to binding of the vesamicol piperazine derivatives of the present invention to various receptors were examined as follows. Specifically, ligands which combine with each receptor were incubated together with homogenates prepared as follows.
To measure affinity to serotonin 5-HT1A receptors, tritium-labeled 8-hydroxy-DPAT was added to a brain homogenate prepared as follows. The vesamicol piperazine derivatives synthesized in the Examples were added at various concentrations, and the mixture was incubated for 30 minutes at 37°C. To measure affinity to serotonin 5-HT2A receptors, tritium-labeled ketanserin was added to a brain homogenate prepared as follows. The vesamicol piperazine derivatives synthesized in the Examples were added at various concentrations, and the mixture was incubated for 15 minutes at 37°C.
(§2) B (%) =((1 0 0 × [U])^(∩))/([ I C50 (])^(∩) (+ [U])^(∩)) [formula] wherein B(%) is the proportion of specific binding in the total binding, n indicates a Hill coefficient, and U is the concentration of unbound ligand.
Male Wistar rats were anesthetized with ether and were decapitated and the brains quickly extracted. The hippocampi were immediately collected from the brains. A 40-fold (vol/wt) amount of ice cooled 50 mM Tris-HCl buffer (pH 7.4) was added to the hippocampi. The mixture was homogenized using a potter-type homogenizer. The homogenate was centrifuged at 40,000 x g for 20 minutes. The supernatant liquid was removed and the resulting pellets were suspended in a 40-fold amount of Tris-HCl buffer solution. The suspension was centrifuged and the Tris buffer solution was again added to the pellets. This procedure was repeated twice. The product thus obtained was homogenized using a 40-fold amount of Tris-HCl buffer solution and incubated for 10 minutes at 37°C to remove endogenic 5-HT. The cell membrane was collected by centrifugation, washed twice, and suspended in a 10-fold amount of 50 mM Tris-HCl buffer solution (pH 7.4). The suspension thus obtained was stored at -80°C until the start of the binding experiment.

In assay [3] the target is T1, vesamicol receptors. Briefly: Receptor binding test: inhibition of I-125 labeled 5-iodobenzo vesamicol binding to brain homogenate. The note with it: for IC50: Inhibitive concentration at 50% (IC50), Vesamicol receptor, Table 5, incubated three hours at 37°C, no unit printed in table (b19 gives nM for DRC140). Set-up: from tissue; host or cells: rat brain without cerebellum, P2 fraction; species or system Male Wistar rats. The method, then:
as §1
To measure affinity of vesamicol receptors, I-125 labeled 5-iodobenzo vesamicol (synthesized and labeled according to Jung et al., J. Med. Chem. 33, 2065-2068, 1990) was added to a brain homogenate prepared as follows. The vesamicol piperazine derivatives synthesized in the Examples were added at various concentrations. The mixture was then incubated for three hours at 37°C.
as §2
Male Wistar rats were anesthetized with ether and were decapitated. The brains were immediately extracted. The cerebella were removed from the brains. 0.32 M sucrose (containing 4 mM HEPES (pH 7.4)) in an amount of five times the wet amount (weight) of this sample was added. The sample was homogenized by a potter-type homogenizer for 12 strokes while cooling with ice. 0.32 M sucrose in the same amount as the homogenate (total: 10 times the wet amount of the original sample) was added. The suspension thus obtained was centrifuged for 5 minutes at 1,000 x g. The precipitate was removed. The supernatant liquid was centrifuged at 9,200 x g for 15 minutes to separate the precipitate from the supernatant liquid. P2 fractions were suspended in a Tris-HCl buffer (pH 7.4) for binding experiments and stored at -80°C until the start of the binding experiment.

Assay [4] deals with T3, sigma receptors (Cavia porcellus, UniProt Q60492).
T3 construct: The brain was immediately extracted; The cerebellum was removed from the brain; from tissue; host or cells: guinea pig brain without cerebellum, membrane pellet
Briefly: Receptor binding test: inhibition of tritium-labeled (+) pentazocine binding to brain homogenate. Details: species or system male guinea pig. The method, then:
as §1
To measure affinity to sigma receptors, tritium-labeled (+) pentazocine was added to a brain homogenate prepared as follows. The vesamicol piperazine derivatives synthesized in the Examples were added at various concentrations, and the mixture was incubated for two hours at room temperature.
as §2
A male guinea pig was anesthetized with ether and was decapitated. The brain was immediately extracted. The cerebellum was removed from the brain. 10 mM Tris-sucrose buffer solution (0.32 M sucrose + 10 mM Tris-HCl (pH 7.4)) was added in the amount of 10 ml/g of the tissue. The mixture was homogenized by a potter-type homogenizer for 6-10 strokes. The homogenate was centrifuged at 1,000 x g for 10 minutes at 4°C and the supernatant liquid was collected. The resulting pellets were suspended in the Tris-sucrose buffer solution at the concentration of 2 ml/g, followed by centrifugation at 1,000 x g for 10 minutes at 4°C. The supernatant liquids obtained by the two centrifugation at 1,000 x g were combined and centrifuged at 31,000 x g for 15 minutes at 4°C. The resulting pellets were suspended in a 10 mM Tris-HCl buffer solution (pH 7.4) at a concentration of 3 ml/g of tissue and incubated for 30 minutes at 25°C. After incubation, the suspension was centrifuged at 31,000 x g for 15 minutes at 4°C. The pellets obtained were suspended in a 10 mM Tris-HCl buffer solution (pH 7.4) to make a final concentration of 1.53 ml/g of tissue. The suspension was homogenized by a potter-type homogenizer for 5 strokes. The homogenate was stored at -80°C until the start of the experiment.

The target of assay [5] is T1, vesamicol receptors. Nature of the assay: Inhibition experiment: inhibition of binding of radioactive-iodine-labeled DRC140 to P2 fractions. Set-up: Synaptic vesicles were extracted and separated from the brain of a rat; from tissue; host or cells: rat brain without cerebellum: P2, crude synaptic vesicles, purified synaptic vesicles. Particulars: inhibitive concentration at 50% (IC50), Receptor Vesamicol.

Assay [6] deals with adrenaline α1 receptors. Briefly: Receptor binding test: inhibition of tritium-labeled prazosin binding to brain homogenate. Set-up: species or system Male Wistar rats.
Where [7] appears, read: Inhibitive concentration at 50% (IC50), Sigma α-1 receptor.
Setting [8] is: inhibitive concentration at 50% (IC50), Receptor Sigma-1.

T3 sequence (Q60492 whole entry): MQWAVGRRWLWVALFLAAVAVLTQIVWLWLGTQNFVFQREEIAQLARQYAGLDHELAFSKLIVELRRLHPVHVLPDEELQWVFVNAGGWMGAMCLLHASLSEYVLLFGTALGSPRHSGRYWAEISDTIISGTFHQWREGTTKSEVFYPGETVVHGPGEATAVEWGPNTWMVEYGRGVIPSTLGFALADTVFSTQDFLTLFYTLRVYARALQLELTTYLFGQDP

Regarding `OC1Cc2cccc([125I])c2CC1N1CCN(c2ccccc2)CC1` (centres unmarked) [I-125 labeled DRC140], the Bmax in assay [1] (Crude synaptic vesicles) amounted to 821±78.6 fmol/mg protein; in assay [1] (P2 fraction, 3 hours at 37°C), 187±58.3 fmol/mg protein; in assay [1] (Purified synaptic vesicles), 1751±92.6 fmol/mg protein. Besides, the equilibrium dissociation constant (Kd) in assay [1] (Crude synaptic vesicles) was determined as 0.34 ± 0.03 nM; in assay [1] (P2 fraction) it was 0.41 ± 0.11 nM; in assay [1] (Purified synaptic vesicles), 0.31 nM. In assay [1] (purified by density gradient centrifugation versus P2 fractions), the “increase in the Bmax of purified synaptic vesicles relative to P2 fractions” value is on record as “approximately nine”.
Consider `Cc1ccc(C)c(N2CCN([C@@H]3Cc4c(I)cccc4C[C@H]3O)CC2)c1` (single isomer, unassigned) [DRE351, (+)-trans-5-iodo-2-hydroxy-3-[4-[2,5-dimethylphenyl]piperazinyl]tetralin], for which the IC50 in assay [2] turned out to be 664 nM; in assay [3], 7.11 nM; in assay [4] (setting [7]) it was 4500 nM; in assay [5] it was 11.4 nM.
For `Cc1ccccc1N1CCN([C@@H]2Cc3c(I)cccc3C[C@H]2O)CC1` (single isomer, unassigned) [DRE342, (-)-trans-5-iodo-2-hydroxy-3-[4-[2-methylphenyl]piperazinyl]tetralin], in that order: 512 nM, 0.23 nM, 50 nM and 0.56 nM.
As for `O[C@@H]1Cc2cccc(I)c2C[C@H]1N1CCN(c2ccccc2)CC1` [DRC140, (-)-trans-5-iodo-2-hydroxy-3-(4-phenyl-1-piperazinyl)tetralin], the IC50 in assay [6] (read-out: Inhibitive concentration at 50% (IC50), Adrenaline α1 receptor, Table 5, incubated 30 minutes at 37°C, unit inferred) worked out at 402 nM; in assay [6] (text of disclosure, adrenaline-type nerve system receptor, read-out: IC50 value for α1-receptor), 402 nM. Moreover, the “greater affinity to vesamicol receptors (versus α1-receptor)” value in assay [3] (ratio of IC50 α1-receptor / vesamicol receptors) was found to be 190 times. For the same compound, in assay [3] (ratio vesamicol receptor versus sigma receptor), the “activity to the vesamicol receptor as high as the activity to the sigma receptor” value is reported as 4,000 times. Moreover, the “time to reach equilibrium” value in assay [1] (at 37°C) worked out at 3 h.
Regarding `O[C@@H]1Cc2cccc(I)c2C[C@H]1N1CCC(c2ccccc2)CC1` [5-iodobenzovesamicol], the IC50 in assay [6] (applicant's own research, read-out: affinity to an α1-receptor (IC50)) came to 6.74 nM.
Take `CCc1ccccc1N1CCN([C@@H]2Cc3c(I)cccc3C[C@H]2O)CC1` (racemic) [DRE353, (±)-trans-5-iodo-2-hydroxy-3-[4-[2-ethylphenyl]piperazinyl]tetralin]: the IC50 in assay [3] worked out at 8.74 nM; in assay [4] (setting [7]) it was 6900 nM; in assay [4] (setting [8]), 5110 nM; in assay [5], 1.1 nM.
Regarding `O[C@@H]1Cc2cc(I)ccc2C[C@H]1N1CCN(c2ccccc2)CC1` (racemic) [DRG449, (±)-trans-7-iodo-2-hydroxy-3-[4-phenylpiperazinyl]tetralin], the IC50 in assay [2] was found to be 4770 nM; in assay [4] (setting [8]), 348 nM; in assay [5], 0.55 nM.
Consider `Cc1cccc(N2CCN([C@@H]3Cc4c(I)cccc4C[C@H]3O)CC2)c1` (racemic) [DRF380, (±)-trans-5-iodo-2-hydroxy-3-[4-[3-methylphenyl]piperazinyl]tetralin], for which the IC50 in assay [3] came out at 3.69 nM; in assay [4] (setting [8]) it was 16300 nM; in assay [5], 2.47 nM.
Take `Cc1cccc(N2CCN([C@@H]3Cc4c(I)cccc4C[C@H]3O)CC2)c1C` (racemic) [DRE354, (±)-trans-5-iodo-2-hydroxy-3-[4-[2,3-dimethylphenyl]piperazinyl]tetralin]: the IC50 in assay [3] stood at 1.41 nM; in assay [4] (setting [7]), 428 nM; in assay [4] (setting [8]), 4560 nM; in assay [5], 1.67 nM.
Regarding `Cc1ccc(I)cc1N1CCN([C@@H]2Cc3c(N)cccc3C[C@H]2O)CC1` (racemic) [DRF383, (±)-trans-5-amino-2-hydroxy-3-[4-[5-iodo-2-methylphenyl]-piperazinyl]tetralin], the results for the IC50 in assay [3], in assay [4] (setting [7]) and in assay [5] were 8.74 nM, 6900 nM and 8.47 nM, respectively.

For orientation: Kd means the equilibrium constant for the complex coming apart.
